Consider two molecules from the NIST ThermoML archive (doi:10.1016/j.fluid.2015.04.022).

Structures are written as SMILES. Numbers after ± are expanded uncertainties.

The conditions of this series: 298.2 K, 101.33 kPa, Liquid; for viscosity: Falling or rolling sphere viscometry; for mass density: Vibrating tube method.

As for `C=CC(C)(O)CCC=C(C)C` (centres undefined) [3,7-dimethyl-1,6-octadien-3-ol], the viscosity (commonly the resistance of a fluid to flow) is recorded as 4.57 ± 0.13 mPa·s and the mass density (as a rule, the mass of a sample divided by its volume) is on record as 857.38 ± 0.28 kg/m3.
In the case of `C=C(C)[C@H]1CC=C(C)CC1` [(R)-1-methyl-4-(1-methylethenyl)cyclohexene], the viscosity is 0.92 ± 0.12 mPa·s and the mass density was found to be 841.35 ± 0.36 kg/m3.
